assay: method code SF, from Craig, N. (1990). Drug Compendium. In Hansch, C (Ed.), Comprehensive Medicinal Chemistry. Pergamon Press.; details: not given

SMILES	logP
Nc1ccc(S(=O)(=O)c2ccc(N)cc2)cc1	1.03
COc1cc(NS(=O)(=O)c2ccc(N)cc2)ncn1	0.7
CCNC1C2CCC(C2)C1c1ccccc1 (stereo not drawn)	3.2
N=C(N)N1CCc2ccccc2C1	0.75
CC(=O)[C@H]1CC[C@H]2[C@@H]3C[C@H](C)C4=CC(=O)CC[C@]4(C)[C@H]3C(=O)C[C@]12C	2.75
Cc1ncc([N+](=O)[O-])n1CCc1ccncc1	0.06
C[C@@H]1C[C@H]2[C@@H]3C[C@H](F)C4=CC(=O)C=C[C@]4(C)[C@@]3(F)[C@@H](O)C[C@]2(C)[C@H]1C(=O)COC(=O)C(C)(C)C	3.86
NC(=O)CCC/N=C(\c1ccc(Cl)cc1)c1cc(F)ccc1O	2.97
CN(C)CCC1CN(C)C(=S)c2cnccc2O1 (stereo not drawn)	1.08
CC(=O)O[C@H]1C[C@H](O[C@H]2[C@@H](O)C[C@H](O[C@H]3[C@@H](O)C[C@H](O[C@H]4CC[C@@]5(C)[C@H](CC[C@@H]6[C@@H]5CC[C@]5(C)[C@@H](C7=CC(=O)OC7)CC[C@]65O)C4)O[C@@H]3C)O[C@@H]2C)O[C@H](C)[C@H]1O	1.97
CCN[C@@H](C)Cc1cccc(C(F)(F)F)c1	3.36
CCN(CC)CCNc1ccc(CO)c2sc3ccccc3c(=O)c12	2.7
COc1cc(S(C)=O)ccc1-c1nc2ncccc2[nH]1 (stereo not drawn)	1.17
OCCN1CCN([C@@H]2C[C@@H](c3ccc(F)cc3)c3ccc(C(F)(F)F)cc32)CC1	4.39
N#Cc1ccccc1OCC(O)CNCCNC(=O)Cc1ccc(O)cc1 (stereo not drawn)	0.92
CCc1ncc([N+](=O)[O-])n1CCNC(=S)OC	1.46
C[C@]12CCC(=O)C=C1CC[C@@H]1[C@@H]2CC[C@@]2(C)[C@H]1CC[C@]2(O)C(=O)CO	2.52
NC(=O)c1csc([C@@H]2O[C@H](CO)[C@@H](O)[C@H]2O)n1	-1.73

SMILES	logP
NCc1ccccc1Sc1ccccc1CO	2.39
OC[C@@H](O)[C@H]1O[C@@H]2O[C@H](C(Cl)(Cl)Cl)O[C@@H]2[C@H]1O	1.02
O=[N+]([O-])c1cnc(-c2ccc(F)cc2)n1CCO	1.33
COc1cc2c(cc1OC)C(CCCCC1NCCc3cc(OC)c(OC)cc31)NCC2 (stereo not drawn)	3.35
CCC1(CC)C(=O)NCC(C)C1=O (stereo not drawn)	0.78
CC(C)S(=O)(=O)n1c(N)nc2ccc(/C(=N\O)c3ccccc3)cc21	3.1
CN1CC[C@@]23CCCC[C@@H]2[C@@H]1Cc1ccc(O)cc13	3.11
CSc1ccc(OCc2ncc([N+](=O)[O-])n2C)cc1	2.5
CCC(OC(C)=O)C(CC(C)N(C)C)(c1ccccc1)c1ccccc1 (stereo not drawn)	4.27
CCC(O)C(CC(C)N(C)C)(c1ccccc1)c1ccccc1 (stereo not drawn)	4.27
CN(C)CCN1C(=O)c2ccccc2Nc2cc(Cl)ccc21	3.73
C=CCC1(C(C)CC)C(=O)NC(=O)NC1=O (stereo not drawn)	1.47
CC(C)/N=C(N)/N=C(\N)Nc1ccc(Cl)cc1	2.53
Nc1ncn([C@@H]2O[C@H](CO)[C@@H](O)[C@@H]2O)c(=O)n1	-2.17
Cc1ncc([N+](=O)[O-])n1CCOC(N)=O	-0.29
Cc1ccccc1-n1c(C)nc2ccccc2c1=O	2.5
CCC(=O)O[C@]1(c2ccccc2)CCN(C)C[C@H]1CC	3.61

same assay, conditions: pH 4.9

SMILES	logD
CCOC(=O)[C@H](CCc1ccccc1)N[C@@H](C)C(=O)N1CCC[C@H]1C(=O)O	-0.07
CCOC(=O)[C@H](CCc1ccccc1)N[C@H]1CCCN2CCC[C@@H](C(=O)O)N2C1=O	0.55

same assay, conditions: pH 7.4

SMILES	logD
CCOC(=O)C=C1SC(N2CCCCC2)C(=O)N1C (stereo not drawn)	2.3
